Assay results taken from US9815819B2, “Complement pathway modulators and uses thereof” (priority 2012, dated 2017).

Each molecule was assayed against Recombinant human factor D (Homo sapiens (Human), UniProt P00746) (assay: Human Complement Factor D Assay: Method 1). Settings: Factor D inhibition, Method 1: 10 nM factor D, 1 hour incubation with compound at room temperature, substrate Z-Lys-thiobenzyl, fluorescence readout; read-out: IC50.
Assay type: biochemical
Method: Recombinant human factor D (expressed in E. coli and purified using standard methods) at 10 nM concentration is incubated with test compound at various concentrations for 1 hour at room temperature in 0.1 M Hepes buffer, pH 7.5, containing 1 mM MgCl2, 1 M NaCl and 0.05% CHAPS. […] IC50 values are calculated from percentage of inhibition of complement factor D-activity as a function of test compound concentration.

Sequence of Recombinant human factor D (P00746 26-253): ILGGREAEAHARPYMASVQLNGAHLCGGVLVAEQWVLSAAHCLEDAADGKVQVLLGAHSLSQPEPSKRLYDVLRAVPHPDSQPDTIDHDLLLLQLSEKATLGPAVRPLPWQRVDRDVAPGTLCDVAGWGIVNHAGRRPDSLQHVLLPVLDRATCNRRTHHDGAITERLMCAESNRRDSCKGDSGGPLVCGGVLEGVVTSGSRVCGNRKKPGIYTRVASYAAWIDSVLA

**Q.** With `CC(=O)c1nn(CC(=O)N2[C@@H]3C[C@@H]3C[C@H]2C(=O)N[C@H]2C[C@@H]2c2cccc(Cl)c2)c2ncccc12` [Example 55, (1R,3S,5R)-2-[2-(3-acetyl-pyrazolo[3,4-b]pyridin-1-yl)-acetyl]-2-aza-bicyclo[3.1.0]hexane-3-carboxylic acid[(1S,2R)-2-(3-chloro-phenyl)-cyclopropyl]-amide] as the molecule, how does the IC50 read?
**A.** 1580 nM

**Q.** How did the IC50 turn out when `CC(=O)c1nn(CC(=O)N2[C@@H]3C[C@@H]3C[C@H]2C(=O)N[C@@H]2C[C@H]2c2cccc(Cl)c2F)c2ncccc12` [Example 56, (1R,3S,5R)-2-[2-(3-Acetyl-pyrazolo[3,4-b]pyridin-1-yl)-acetyl]-2-aza-bicyclo[3.1.0]hexane-3-carboxylic acid [(1R,2S)-2-(3-chloro-2-fluoro-phenyl)-cyclopropyl]-amide] was run?
**A.** 109 nM

**Q.** How did the IC50 turn out when `CC(=O)c1nn(CC(=O)N2[C@@H]3C[C@@H]3C[C@H]2C(=O)N[C@H]2C[C@@H]2c2cccc(Cl)c2F)c2ncccc12` [Example 57, (1R,3S,5R)-2-[2-(3-Acetyl-pyrazolo[3,4-b]pyridin-1-yl)-acetyl]-2-aza-bicyclo[3.1.0]hexane-3-carboxylic acid [(1S,2R)-2-(3-chloro-2-fluoro-phenyl)-cyclopropyl]-amide] was run?
**A.** 1610 nM

**Q.** With `CC(=O)c1nn(CC(=O)N2[C@@H]3C[C@@H]3C[C@H]2C(=O)N[C@@H]2C[C@H]2c2ccccc2F)c2ncccc12` [Example 63, (1R,3S,5R)-2-[2-(3-Acetyl-pyrazolo[3,4-b]pyridin-1-yl)-acetyl]-2-aza-bicyclo[3.1.0] hexane-3-carboxylic acid [(1R,2S)-2-(2-fluoro-phenyl)-cyclopropyl]-amide] as the molecule, how does the IC50 read?
**A.** 64 nM

**Q.** Which IC50 does the source give for `CC(=O)c1nn(CC(=O)N2[C@@H]3C[C@@H]3C[C@H]2C(=O)N[C@H]2C[C@@H]2c2ccccc2F)c2ncccc12` [Example 64, (1R,3S,5R)-2-[2-(3-Acetyl-pyrazolo[3,4-b]pyridin-1-yl)-acetyl]-2-aza-bicyclo[3.1.0] hexane-3-carboxylic acid [(1S,2R)-2-(2-fluoro-phenyl)-cyclopropyl]-amide] here?
**A.** 791 nM

**Q.** Which IC50 does the source give for `CC(=O)c1nn(CC(=O)N2[C@@H]3C[C@@H]3C[C@H]2C(=O)N[C@@H]2C[C@H]2c2ccccc2Cl)c2cnccc12` [Example 65, (1R,3S,5R)-2-[2-(3-Acetyl-pyrazolo[3,4-c]pyridin-1-yl)-acetyl]-2-aza-bicyclo[3.1.0] hexane-3-carboxylic acid [(1R,2S)-2-(2-chloro-phenyl)-cyclopropyl]-amide] here?
**A.** 30 nM

**Q.** Which IC50 does the source give for `CC(=O)c1nn(CC(=O)N2[C@@H]3C[C@@H]3C[C@H]2C(=O)N[C@@H]2C[C@H]2c2ccccc2Cl)c2ncccc12` [Example 66, (1R,3S,5R)-2-[2-(3-Acetyl-pyrazolo[3,4-b]pyridin-1-yl)-acetyl]-2-aza-bicyclo[3.1.0] hexane-3-carboxylic acid [(1R,2S)-2-(2-chloro-phenyl)-cyclopropyl]-amide] here?
**A.** 44 nM

**Q.** For `NC(=O)c1nn(CC(=O)N2[C@@H]3C[C@@H]3C[C@H]2C(=O)N[C@@H]2C[C@H]2c2ccccc2Cl)c2cnccc12` [Example 67, 1-(2-{(1R,3S,5R)-3-[(1R,2S)-2-(2-Chloro-phenyl)-cyclopropylcarbamoyl]-2-aza-bicyclo[3.1.0]hex-2-yl}-2-oxo-ethyl)-1H-pyrazolo[3,4-c]pyridine-3-carboxylic acid amide], which IC50 is on record?
**A.** 35 nM

**Q.** With `CCc1cc2c(C(N)=O)nn(CC(=O)N3[C@@H]4C[C@@H]4C[C@H]3C(=O)N[C@@H]3C[C@H]3c3ccccc3Cl)c2cn1` [Example 68, 1-(2-{(1R,3S,5R)-3-[(1R,2S)-2-(2-Chloro-phenyl)-cyclopropylcarbamoyl]-2-aza-bicyclo[3.1.0]hex-2-yl}-2-oxo-ethyl)-5-ethyl-1H-pyrazolo[3,4-c]pyridine-3-carboxylic acid amide] as the molecule, how does the IC50 read?
**A.** 37 nM

**Q.** With `Cc1cc2c(C(N)=O)nn(CC(=O)N3[C@@H]4C[C@@H]4C[C@H]3C(=O)N[C@@H]3C[C@H]3c3ccccc3F)c2cn1` [Example 70, 1-(2-{(1R,3S,5R)-3-[(1R,2S)-2-(2-Fluoro-phenyl)-cyclopropylcarbamoyl]-2-aza-bicyclo[3.1.0]hex-2-yl}-2-oxo-ethyl)-5-methyl-1H-pyrazolo[3,4-c]pyridine-3-carboxylic acid amide] as the molecule, how does the IC50 read?
**A.** 125 nM

**Q.** `Cc1cc2c(C(N)=O)nn(CC(=O)N3C[C@H](F)C[C@H]3C(=O)N[C@@H]3C[C@H]3c3ccccc3F)c2cn1` [Example 71, 1-(2-{(2S,4R)-4-Fluoro-2-[(1R,2S)-2-(2-fluoro-phenyl)-cyclopropylcarbamoyl]-pyrrolidin-1-yl}-2-oxo-ethyl)-5-methyl-1H-pyrazolo[3,4-c]pyridine-3-carboxylic acid amide] was tested. Which IC50 did it give?
**A.** 90 nM

**Q.** How did the IC50 turn out when `NC(=O)c1nn(CC(=O)N2C[C@H](F)C[C@H]2C(=O)N[C@@H]2C[C@H]2c2ccc(Cl)cc2)c2cnccc12` [Example 72, 1-(2-{(2S,4R)-2-[(1R,2S)-2-(4-Chloro-phenyl)-cyclopropylcarbamoyl]-4-fluoro-pyrrolidin-1-yl}-2-oxo-ethyl)-1H-pyrazolo[3,4-c]pyridine-3-carboxylic acid amide] was run?
**A.** 309 nM

**Q.** `Cc1cc2c(C(N)=O)nn(CC(=O)N3[C@@H]4C[C@@H]4C[C@H]3C(=O)N[C@@H]3C[C@H]3c3ccccc3Cl)c2cn1` [Example 73, 1-(2-{(1R,3S,5R)-3-[(1R,2S)-2-(2-Chloro-phenyl)-cyclopropylcarbamoyl]-2-aza-bicyclo[3.1.0]hex-2-yl}-2-oxo-ethyl)-5-methyl-1H-pyrazolo[3,4-c]pyridine-3-carboxylic acid amide] was tested. Which IC50 did it give?
**A.** 45 nM

**Q.** How did the IC50 turn out when `CC(=O)c1nn(CC(=O)N2[C@@H]3C[C@@H]3C[C@H]2C(=O)N[C@@H]2C[C@H]2c2ccccc2F)c2cc(C(=O)O)ccc12` [Example 87, 3-Acetyl-1-(2-{(1R,3S,5R)-3-[(1R,2S)-2-(2-fluoro-phenyl)-cyclopropylcarbamoyl]-2-aza-bicyclo[3.1.0]hex-2-yl}-2-oxo-ethyl)-1H-indazole-6-carboxylic acid] was run?
**A.** 46 nM
